We go through ten compounds from patent US7994185B2, “Benzene sulfonamide thiazole and oxazole compounds” (Glaxo Smith Kline LLC, priority 2008, dated 2011).

Where a name gives a salt, the structure may show the parent alone. Read-outs that look alike come from different tables or passages of the source.

In test [1] the test system is Human melanoma cancer cells (SK-MEL-28). The experiment in a line: Cell growth inhibition assay (CellTiter-Glo), SK-MEL-28. Type of test: cell-based. Background: Cellular ATP, detected with luciferase, serves as a proxy for viable cell number.
Test [2] deals with Human colon tumor cells (Colo205). Nature of the test: Cell growth inhibition assay (CellTiter-Glo), Colo205. Type of test: cell-based. An outline of the steps: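 Growth is estimated from total cellular ATP measured by CellTiter-Glo luminescence after a 3-day compound exposure at 37 °C. Compounds are tested as 1:3 dilution series in 0.2% final DMSO, with inhibition expressed relative to vehicle-treated wells.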

The test system of test [3] is pERK (pERK/tERK). The experiment in a line: Pharmacodynamic effect, pERK/tERK in A375P F11s xenograft tumors. The test is classed as in vivo, mice. To be noted: Mus musculus, read-out: inhibition of pERK (pERK/tERK). As to the method:
Animals were housed in pathogen free conditions and handled with aseptic technique. […] Detached cells were collected, centrifuged (1500 rpm, 5 min, 4° C.) and rinsed to remove the trypsin solution. Cells were resuspended in PBS without magnesium or calcium and counted. Cells were spun as previously to remove PBS and a single cell suspension was created either in 50% Matrigel: 50% PBS (v:v) or 100% PBS so that a 100 μL subcutaneous injection would deliver the required number of cells per mouse. The A375P F11s melanoma line was injected with Matrigel at 4 million cells per mouse. Tumors were established (˜150-300 mm^3) for all cell lines within 2-4 weeks post-injection.
At 2 h following oral administration of compound mice were euthanized using carbon dioxide. Tumors were carefully excised, homogenized using Medimachine (BD Bioscience) with 1 ml of lysis buffer (25 mM Tris-HCl (pH 7.5), 2 mM EDTA (pH 8.0), 2 mM EGTA (pH 8.0), 1% Triton X-100, 0.1% SDS, 50 mM Na—B—PO4, 2 mM NaVO4, 4 mM Na-Pyr-PO4, 2× phosphatase inhibitor cocktail. Crude homogenate was transferred to a 12 ml polypropylene tube containing 1.5 ml of lysis buffer and kept on ice. Following homogenization of all samples, 1 ml of homogenate was transferred to an eppendorf tube and centrifuged at 14,000 rpm for 15 min at 4° C. Five hundred microliter of clarified lysate was transferred to a new tube, flash frozen and processed for quantitation of pERK and tERK using western blot or Elisa (MSD) assays. […] BioRad dye was added to BSA dilutions and diluted test lysates. […] Comparison to the standard curve provides a relative measurement of protein concentration. […] The gels were transferred onto nitro-cellulose membranes using the iBlot transfer apparatus, which were then blocked and incubated with different primary antibodies overnight at 4° C. Western blots dually probed against pERK and tERK were scanned using LI-COR Odyssey® reader. A ratio of the immunofluorescent density obtained for pERK/tERK is calculated and expressed as a ratio (in percentage) to control untreated samples. For determination of pERK/tERK ratio by ELISA, MesoScale Discovery (MSD) (cat# K15107) plate were used according to manufacturer's instructions. In brief, MSD plates were block with 150 μl/well of blocking buffer for 1 hr before being washed 4 times with 200 μl of washing buffer. Thirty microliter (30 μl) of serially diluted samples was added to wells and plates were incubated overnight at 4° C. under slow agitation (˜500 rpm). Plates were washed 4 times in 200 μl 1× Tris wash buffer and 25 μl detection antibody solution was added to all wells and incubated at room temperature for 1 hr (˜500 rpm). Plates were washed 4 times in 200 μl wash buffer and 150 μl of read buffer was added to all wells. Plates were read on MSD.SI6000. In this assay vehicle and compound treated samples were tested at 4 different dilutions to allow linear range coverage of the assay. From pERK and tERK signal, background (BSA signal) was subtracted and ratio of pERK/tERK determined and normalized to untreated vehicle samples, arbitrarily set at 100%.

The subject of test [4] is A375P F11s. Nature of the test: 3-day proliferation assays, selection of A375P F11s clone. The test is classed as cell-based, human. To be noted: A375P F11s subclone of A375P. As for the experimental part: Activity of select exemplified compounds was tested in vivo against A375 PF11s (melanoma cell line encoding a B-Raf V600E mutation) xenograft mouse model. The A375P F11s cell line, encoding a mutation for BRAF^V600E, was subcloned from the A375P human melanoma cell line (obtained from ATCC, Cat # CRL-1619) by limiting dilution and selected based on high (90%) sensitivity to the BRAF inhibitor, SB-590885 (commercially available), in 3-day proliferation assays. The selected clone (A375P F11s) was isolated and mutation in B-Raf (T1799A) encoding the V600E amino acid change was reconfirmed.

Test [5] addresses T1, BRAFV600E full-length (amino acids 2-766) (Homo sapiens, UniProt P15056, V600E).
T1 construct: His6-tagged BRAFV600E full-length (amino acids 2-766); His6; made in house; host or cells: baculovirus expression system (insect cells)
Nature of the test: B-Raf Accelerated MEK ATPase assay (BRAMA). Type of test: biochemical. The note with it: categorized. An outline of the steps: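 Coupled-enzyme readout: ADP generated by MEK-mediated ATP hydrolysis, uncoupled from ERK phosphorylation, is linked to NADH oxidation through pyruvate kinase and lactate dehydrogenase.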

The mark [6] stands for this setting: SK-MEL-28, 72 h, Table 3a, 3 days incubation, read-out: Activity in SK-MEL-28 Tumor Cells.
[7] abbreviates: COLO 205, 72 h, Table 2a, 3 days incubation, read-out: Activity in Colo205 Tumor Cells.
Setting [8] is: SK-MEL-28, Table 3b, later runs, average for the one or more runs, categorized, read-out: IC50 for SK-MEL-28.
[9] abbreviates: COLO 205, Table 2b, later runs, average for the one or more runs, categorized, read-out: IC50 for Colo205.
Where [10] appears, read: A375P F11s xenograft tumors, single oral dose of 100 mg/kg, 2 h after administration.
The mark [11] stands for this setting: B-Raf Activity, Table 1a, highest pIC50 for the one or more runs.
The mark [12] stands for this setting: B-Raf pIC50, Table 1b, later runs, average pIC50 for the one or more runs.
The mark [13] stands for this setting: Table 1b, later runs, average pIC50 for the one or more runs, read-out: B-Raf pIC50 (converted).

T1 sequence (P15056 2-766 V600E): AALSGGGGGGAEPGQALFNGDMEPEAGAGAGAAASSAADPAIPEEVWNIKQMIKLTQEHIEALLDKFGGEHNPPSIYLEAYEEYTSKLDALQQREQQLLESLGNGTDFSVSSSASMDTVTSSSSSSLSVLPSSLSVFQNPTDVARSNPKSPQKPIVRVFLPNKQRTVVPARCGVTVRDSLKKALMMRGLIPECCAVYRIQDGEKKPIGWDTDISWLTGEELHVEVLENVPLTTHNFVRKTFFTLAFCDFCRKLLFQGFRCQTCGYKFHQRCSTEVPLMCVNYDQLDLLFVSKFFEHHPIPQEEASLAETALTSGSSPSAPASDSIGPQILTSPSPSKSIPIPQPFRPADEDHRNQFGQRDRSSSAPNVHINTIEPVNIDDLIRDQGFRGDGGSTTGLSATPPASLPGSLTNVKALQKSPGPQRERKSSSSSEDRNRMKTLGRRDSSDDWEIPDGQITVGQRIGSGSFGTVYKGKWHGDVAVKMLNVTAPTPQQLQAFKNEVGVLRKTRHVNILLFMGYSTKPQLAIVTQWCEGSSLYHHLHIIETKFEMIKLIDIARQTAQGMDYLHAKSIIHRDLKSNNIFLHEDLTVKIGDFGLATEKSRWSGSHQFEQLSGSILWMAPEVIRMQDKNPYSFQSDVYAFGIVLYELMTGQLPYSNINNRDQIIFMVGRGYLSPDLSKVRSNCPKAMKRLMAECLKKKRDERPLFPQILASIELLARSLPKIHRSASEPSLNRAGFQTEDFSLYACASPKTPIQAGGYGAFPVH

Consider `CC(C)(C)c1nc(-c2cccc(NS(=O)(=O)c3c(F)cccc3F)c2F)c(-c2ccnc(N)n2)s1` [Example 58, N-{3-[5-(2-amino-4-pyrimidinyl)-2-(1,1-dimethylethyl)-1,3-thiazol-4-yl]-2-fluorophenyl}-2,6-difluorobenzenesulfonamide], for which the IC50 in test [1] (setting [6]) and in test [2] (setting [7]) was below 100 nM each time. The inhibition at 100 mg/kg in test [3] (A375P, po, 2 h) is at least 30%.

In the case of `CN(C)CCOc1ccc(-c2nc(-c3ccncc3)c(-c3ccc4c(c3)CC/C4=N\O)[nH]2)cc1` [SB-590885], the “sensitivity to the BRAF inhibitor in 3-day proliferation assays” value in test [4] worked out at 90%.

`Nc1nccc(-c2sc(N3CCOCC3)nc2-c2cccc(NS(=O)(=O)c3ccco3)c2Cl)n1` [Example 24, N-{3-[5-(2-Amino-4-pyrimidinyl)-2-(4-morpholinyl)-1,3-thiazol-4-yl]-2-chlorophenyl}-2-furansulfonamide]: the IC50 was below 100 nM in test [1] (setting [6]); 100 to 1000 nM in test [1] (setting [8]); below 100 nM in test [2] (setting [7]); 100 to 1000 nM in test [2] (setting [9]); below 100 nM in test [5] (setting [11]); at most 3.16 nM in test [5] (setting [12]). Besides, the inhibition at 100 mg/kg in test [3] (setting [10]) was at least 30%.

Consider `Cc1nccc(-c2sc(C(C)(C)C)nc2-c2cccc(NS(=O)(=O)c3cc(F)ccc3F)c2F)n1` [Example 65, N-{3-[2-(1,1-dimethylethyl)-5-(2-methyl-4-pyrimidinyl)-1,3-thiazol-4-yl]-2-fluorophenyl}-2,5-difluorobenzenesulfonamide], for which the IC50 was below 100 nM in test [1] (setting [6]); below 100 nM in test [1] (setting [8]); below 100 nM in test [2] (setting [7]); below 100 nM in test [2] (setting [9]); below 100 nM in test [5] (setting [11]); at most 3.16 nM in test [5] (setting [12]). In addition, the inhibition at 100 mg/kg in test [3] (setting [10]) is at least 30%.

On to `Nc1nccc(-c2sc(C3CCOCC3)nc2-c2cccc(NS(=O)(=O)c3c(F)cccc3F)c2F)n1` [Example 64, N-{3-[5-(2-amino-4-pyrimidinyl)-2-(tetrahydro-2H-pyran-4-yl)-1,3-thiazol-4-yl]-2-fluorophenyl}-2,6-difluorobenzenesulfonamide], for which the IC50 in test [1] (setting [6]) is below 100 nM; in test [1] (setting [8]) it was below 100 nM; in test [2] (setting [7]) it was below 100 nM; in test [2] (setting [9]) it was below 100 nM; in test [5] (setting [11]), below 100 nM; in test [5] (setting [12]), at most 3.16 nM. Besides, the inhibition at 100 mg/kg in test [3] (setting [10]) was at least 30%.

`Nc1nccc(-c2sc(N3CCOCC3)nc2-c2cccc(NS(=O)(=O)c3c(F)cccc3F)c2F)n1` [Example 59, N-{3-[5-(2-Amino-4-pyrimidinyl)-2-(4-morpholinyl)-1,3-thiazol-4-yl]-2-fluorophenyl}-2,6-difluorobenzenesulfonamide]: the IC50 is 100 to 1000 nM in test [1] (setting [6]); 100 to 1000 nM in test [1] (setting [8]); 100 to 1000 nM in test [2] (setting [7]); 100 to 1000 nM in test [2] (setting [9]); below 100 nM in test [5] (setting [11]); 3.16 to 31.6 nM in test [5] (setting [13]). The inhibition at 100 mg/kg in test [3] (setting [10]) was at least 30%.

In the case of `O=S(=O)(Nc1cccc(-c2nc(C3CCOCC3)sc2-c2ccncn2)c1Cl)c1c(F)cccc1F` [Example 26, N-{2-Chloro-3-[5-(4-pyrimidinyl)-2-(tetrahydro-2H-pyran-4-yl)-1,3-thiazol-4-yl]phenyl}-2,6-difluorobenzenesulfonamide], the IC50 in test [1] (setting [6]) was below 100 nM; in test [1] (setting [8]), below 100 nM; in test [2] (setting [7]) it was below 100 nM; in test [2] (setting [9]) it was below 100 nM; in test [5] (setting [11]), below 100 nM; in test [5] (setting [12]), at most 3.16 nM. The inhibition at 100 mg/kg in test [3] (setting [10]) was at least 30%.

On to `Nc1nccc(-c2sc(N3CCOCC3)nc2-c2cccc(NS(=O)(=O)c3cc(F)ccc3F)c2Cl)n1` [Example 156], for which the IC50 was below 100 nM in test [1] (setting [6]); below 100 nM in test [1] (setting [8]); below 100 nM in test [2] (setting [7]); below 100 nM in test [2] (setting [9]); below 100 nM in test [5] (setting [11]); at most 3.16 nM in test [5] (setting [12]). Besides, the inhibition at 100 mg/kg in test [3] (setting [10]) was at least 30%.

Take `Cc1nccc(-c2sc(C3CCOCC3)nc2-c2cccc(NS(=O)(=O)c3c(F)cccc3F)c2Cl)n1` [Example 25, N-{2-Chloro-3-[5-(2-methyl-4-pyrimidinyl)-2-(tetrahydro-2H-pyran-4-yl)-1,3-thiazol-4-yl]phenyl}-2,6-difluorobenzenesulfonamide trifluoroacetate]: the IC50 in test [1] (setting [6]) was below 100 nM; in test [1] (setting [8]) it was below 100 nM; in test [2] (setting [7]), 100 to 1000 nM; in test [2] (setting [9]), 100 to 1000 nM; in test [5] (setting [11]), below 100 nM; in test [5] (setting [13]) it was 3.16 to 31.6 nM. Moreover, in test [3] (setting [10]), the inhibition at 100 mg/kg was at least 30%.

On to `CC(C)(C)c1nc(-c2cccc(NS(=O)(=O)c3cc(F)ccc3F)c2F)c(-c2ccncn2)s1` [Example 66, N-{3-[2-(1,1-Dimethylethyl)-5-(4-pyrimidinyl)-1,3-thiazol-4-yl]-2-fluorophenyl}-2,5-difluorobenzenesulfonamide], for which the IC50 in test [1] (setting [6]) is below 100 nM; in test [1] (setting [8]) it was below 100 nM; in test [2] (setting [7]), below 100 nM; in test [2] (setting [9]) it was below 100 nM; in test [5] (setting [11]), below 100 nM; in test [5] (setting [12]), at most 3.16 nM. Besides, in test [3] (setting [10]), the inhibition at 100 mg/kg is at least 30%.
